Experimental data taken from patent US11000512B2, “Use of DDX3 inhibitors as antiproliferative agents” (AZIENDA OSPEDALIERA UNIVERSITARIA SENESE, priority 2016, dated 2021).
One block for each molecule: values may come before it.

Experiments:
[1] = Microsomal Stability Assay (HLM); assay type: in vitro ADME; conditions: human liver microsomes, 37° C., 60 min, NADPH-generating system; percentage of not metabolized compound
Excerpt: (§1) For the quantification was used an LC-MS system consisted of a Varian apparatus (Varian Inc) including a vacuum solvent degassing unit, two pumps (212-LC), a Triple Quadrupole MSD (Mod. 320-LC) mass spectrometer with ES interface and Varian MS Workstation System Control Vers. 6.9 software. Chromatographic separation was obtained using a Pursuit C18 column (50×2.0 mm) (Varian) with 3 μm particle size and gradient elution: eluent A being ACN and eluent B consisting of water. […] The flow rate was 0.2 mL min^−1 and injection volume was 5 μL. The instrument operated in positive mode and parameters were: detector 1850 V, drying gas pressure 25.0 psi, desolvation temperature 300.0° C., nebulizing gas 40.0 psi, needle 5000 V and shield 600 V. Nitrogen was used as nebulizer gas and drying gas. Collision induced dissociation was performed using Argon as the collision gas at a pressure of 1.8 mTorr in the collision cell. Microsomal Stability Assay. […] The reaction was stopped by cooling on ice and adding 1.0 mL of acetonitrile. The reaction mixtures were then centrifuged, and the parent drug and metabolites were subsequently determined by LC-UV-MS. Chromatographic analysis was performed with an Agilent 1100 LC/MSD VL system (G1946C) (Agilent Technologies, Palo Alto, Calif.) constituted by a vacuum solvent degassing unit, a binary high-pressure gradient pump, an 1100 series UV detector, and an 1100 MSD model VL benchtop mass spectrometer.
Chromatographic separation was obtained using a Varian Polaris C18-A column (150-4.6 mm, 5 μm particle size) and gradient elution: eluent A being ACN and eluent B consisting of water. […] The flow rate was 0.8 mL min^−1 and injection volume was 20 μL.
The Agilent 1100 series mass spectra detection (MSD) single-quadrupole instrument was equipped with the orthogonal spray API-ES (Agilent Technologies, Palo Alto, Calif.). Nitrogen was used as nebulizing and drying gas. The pressure of the nebulizing gas, the flow of the drying gas, the capillary voltage, the fragmentor voltage, and the vaporization temperature were set at 40 psi, 9 L/min, 3000 V, 70 V, and 350° C., respectively. UV detection was monitored at 280 nm. The LC-ESI-MS determination was performed by operating the MSD in the positive ion mode. Spectra were acquired over the scan range m/z 100-1500 using a step size of 0.1 u. The percentage of not metabolized compound was calculated by comparison with reference solutions.

[2] = system: Human cervical carcinoma cell line (HeLa); assay: Cytotoxicity test / growth inhibition, HeLa; assay type: cell-based; conditions: 48 hours, cell counting, mM
Protocol: (§2) Cells were purchased from American Type Culture Collection (ATCC, Manassas, Va., USA). The LNCaP (ATCC® CRL-1740™), A549 (ATCC® CCL-185™), MDA-MB-231 (ATCC® CRM-HTB-26™), 22Rv1 (ATCC® CRL-2505™), HCT-116 (ATCC® CCL-247™) and PC3 (ATCC® CRL-1435™) cells were maintained in Roswell Park Memorial Institute 1640 medium (RPMI; Euroclone, ECB9006L) supplemented with 10% fetal bovine serum (Euroclone; ECS0180L), 2 mM L-glutamine, 100 units/mL penicillin and […] streptomycin at 37° C. in an atmosphere of 5% CO2/air. DU145 (ATCC® HTB-81™), and DAOY (ATCC® HTB-186™) cells were maintained in Eagle's minimal essential medium (EMEM; Euro-clone, ECM0445L) supplemented with 10% fetal bovine serum (Euroclone; ECS0180L), 2 mM L-glutamine, 100 units/ml penicillin and […] streptomycin at 37° C. in an atmosphere of 5% CO2/air. SH-SY5Y (ATCC® CRL-2266™), DBRTG (ATCC® CRL-2020™), HeLa (ATCC® CCL-2™), HN6 cells (kindly provided by Dr Silvio Gutkind, UCSD Medical Center, Moores Cancer Center USA, Chen J. J et al, Oncotarget 2013, 4, 206-217)), U2OS (ATCC® HTB-96™), RD18 cells (kindly provided by Dr P. Boccuni Memorial Sloan-Kettering Cancer Center, New York, USA Vella S. et al. Clin Epigenetics. […]
(§3) Cell lines were seeded at appropriate densities in 2 mL growth medium in 6-wells culture plates 24 hours before the treatment with the inhibitor compounds. […] Cells were incubated 48 hours with drugs and, then, cell viability was evaluated.
(§4) Cells were detached from each well of the 6-wells plates with 300 μL of Trypsin and suspended in culture medium to a final volume of 1 mL. Cell viability was then assessed through cell counting. Cells were diluted in 1:50 ratio of an isotonic buffered diluent, Isoton (Backman Coulter), following the manufacturer's instructions, and counted using an automated cell counter (Z2 series Coulter Counter, Beckman Coulter). […]

[3] = system: Human Glioblastoma cell line (U87); assay: Cytotoxicity test / growth inhibition, U87; assay type: cell-based; conditions: U87, 48 hours, cell counting, mM
Protocol: (§5) Cell lines were seeded at appropriate densities in 2 mL growth medium in 6-wells culture plates 24 hours before the treatment with the inhibitor compounds. After 24 h the culture medium was removed and fresh medium containing increasing concentrations of chemical compounds was added to cells. The fixed final concentrations were: 0.1 μM, 1 μM, 10 μM, 100 μM. DMSO was the vehicle used for dilution of the compounds and its final concentration on cells was less than 0.2%. Medium-only containing wells were included as controls. Cells were incubated 48 hours with drugs and, then, cell viability was evaluated.
as §4, with “Coulter). Each cell count was performed in three replicates. The values corresponding to the relative survival of cells in presence of each chemical compound at single concentrations were normalized to the untreated controls.” for “Coulter).”

[4] = Parallel Artificial Membrane Permeability Assay (PAMPA), GI; assay type: in vitro ADME; conditions: GI (intestinal) PAMPA, value in brackets
Protocol: Parallel Artificial Membrane Permeability Assay (PAMPA). Donor solution (0.5 mM) was prepared by diluting 1 mM dimethylsulfoxide (DMSO) compound stock solution using phosphate buffer (pH 7.4, 0.025 M). Filters were coated with 5 μL of a 1% (w/v) dodecane solution of phosphatidylcholine prepared from CHCl3 solution 10% w/v, for intestinal permeability. Donor solution (150 μL) was added to each well of the filter plate. To each well of the acceptor plate were added 300 μL of solution (50% DMSO in phosphate buffer). All compounds were tested in three different plates on different days. The sandwich was incubated for 5 h at room temperature under gentle shaking. After the incubation time, the plates were separated, and samples were taken from both receiver and donor sides and analyzed using LC with UV detection at 280 nm.
LC analysis were performed with a Varian Prostar HPLC system (Varian Analytical Instruments, USA) equipped with a binary pump with a manual injection valve and model Prostar 325 UV-VIS Detector. Chromatographic separations were conducted using a Polaris C18-A column (150-4.6 mm, 5 μm particle size) at a flow rate of 0.8 mL min^−1 with a mobile phase composed of 60% ACN/40% H2O.
Permeability (Papp) for PAMPA was calculated according to the following equation, obtained from Wohnsland and Faller and Sugano et al. equation with some modification in order to obtain permeability values in cm s^−1,
where VA is the volume in the acceptor well, VD is the volume in the donor well (cm^3), A is the “effective area” of the membrane (cm^2), t is the incubation time (s) and r the ratio between drug concentration in the acceptor and equilibrium concentration of the drug in the total volume (VD+VA). Drug concentration is estimated by using the peak area integration.
Membrane retentions (%) were calculated according to the following equation: […]
where r is the ratio between drug concentration in the acceptor and equilibrium concentration, D, A, and Eq represented drug concentration in the donor, acceptor and equilibrium solution, respectively.

[5] = system: Human breast adenocarcinoma cell line (MDA-MB-231); assay: Cytotoxicity test / growth inhibition, MDA-MB-231; assay type: cell-based; conditions: MDA-MB-231, 48 hours, cell counting
Protocol: (§6) Cells were purchased from American Type Culture Collection (ATCC, Manassas, Va., USA). The LNCaP (ATCC® CRL-1740™), A549 (ATCC® CCL-185™), MDA-MB-231 (ATCC® CRM-HTB-26™), 22Rv1 (ATCC® CRL-2505™), HCT-116 (ATCC® CCL-247™) and PC3 (ATCC® CRL-1435™) cells were maintained in Roswell Park Memorial Institute 1640 medium (RPMI; Euroclone, ECB9006L) supplemented with 10% fetal bovine serum (Euroclone; ECS0180L), 2 mM L-glutamine, 100 units/mL penicillin and […] streptomycin at 37° C. in an atmosphere of 5% CO2/air. DU145 (ATCC® HTB-81™), and DAOY (ATCC® HTB-186™) cells were maintained in Eagle's minimal essential medium (EMEM; Euro-clone, ECM0445L) supplemented with 10% fetal bovine serum (Euroclone; ECS0180L), 2 mM L-glutamine, 100 units/ml penicillin and […] streptomycin at 37° C. in an atmosphere of 5% CO2/air. SH-SY5Y (ATCC® CRL-2266™), DBRTG (ATCC® CRL-2020™), HeLa (ATCC® CCL-2™), HN6 cells (kindly provided by Dr Silvio Gutkind, UCSD Medical Center, Moores Cancer Center USA, Chen J. J et al, Oncotarget 2013, 4, 206-217)), U2OS (ATCC® HTB-96™), RD18 cells (kindly provided by Dr P. Boccuni Memorial Sloan-Kettering Cancer Center, New York, USA Vella S. et al. Clin Epigenetics. 2015 6; 7-82), cells were maintained in Dulbecco's modified Eagle's medium (DMEM; Euroclone, ECB7501L) supplemented with 10% fetal bovine serum (Euroclone; ECS0180L), 2 mM L-glutamine, 100 units/ml penicillin and […] streptomycin at 37° C. in an atmosphere of 5% CO2/air.
as §5
(§7) Cells were detached from each well of the 6-wells plates with 300 μL of Trypsin and suspended in culture medium to a final volume of 1 mL. Cell viability was then assessed through cell counting. Cells were diluted in 1:50 ratio of an isotonic buffered diluent, Isoton (Backman Coulter), following the manufacturer's instructions, and counted using an automated cell counter (Z2 series Coulter Counter, Beckman Coulter). Each cell count was performed in three replicates. The values corresponding to the relative survival of cells in presence of each chemical compound at single concentrations were normalized to the untreated controls. Then, the half maximal inhibitory concentration (IC50) value, which represent the drug concentration that is required to induce a 50% growth inhibition in vitro, was calculated with GraphPad Prism 6.0 software using the best fitting sigmoid curve.

[6] = system: Human Neuroblastoma cell line (SH-SY5Y); assay: Cytotoxicity test / growth inhibition, SH-SY5Y; assay type: cell-based; conditions: 48 hours, cell counting
Protocol: Cells were purchased from American Type Culture Collection (ATCC, Manassas, Va., USA). The LNCaP (ATCC® CRL-1740™), A549 (ATCC® CCL-185™), MDA-MB-231 (ATCC® CRM-HTB-26™), 22Rv1 (ATCC® CRL-2505™), HCT-116 (ATCC® CCL-247™) and PC3 (ATCC® CRL-1435™) cells were maintained in Roswell Park Memorial Institute 1640 medium (RPMI; Euroclone, ECB9006L) supplemented with 10% fetal bovine serum (Euroclone; ECS0180L), 2 mM L-glutamine, 100 units/mL penicillin and […] streptomycin at 37° C. in an atmosphere of 5% CO2/air. […]
as §3, §4

Water Solubility Assay = assay type: physicochemical
Protocol: Water Solubility Assay. Each solid compound (1 mg) was added to 1 mL of water. The samples were shaked in a shaker bath at room temperature for 24-36 h. The suspensions were filtered through a 0.45 μm nylon filter (Acrodisc), and the solubilized compound determined by LC-MS-MS assay. For each compound the determination was performed in triplicate.
as §1

[7] = system: Human Prostate cancer cell line (PC3); assay: Cytotoxicity test / growth inhibition, PC3; assay type: cell-based; conditions: PC3, 48 hours, cell counting
Protocol: as §2, §3, §4

[8] = system: Human Prostate cell line derived from brain metastasis (DU-145); assay: Cytotoxicity test / growth inhibition, DU-145; assay type: cell-based; conditions: DU-145, 48 hours, cell counting
Protocol: as §6, §5
as §4, with “Coulter). Each cell count was performed in three replicates. The values corresponding to the relative survival of cells in presence of each chemical compound at single concentrations were normalized to the untreated controls.” for “Coulter).”

[9] = system: Human head and neck squamous carcinoma cell line (HN6); assay: Cytotoxicity test / growth inhibition, HN6; assay type: cell-based; conditions: HN6, 48 hours, cell counting
Protocol: as §6, §5, §7

[10] = system: Human osteosarcoma cell line (U2OS); assay: Cytotoxicity test / growth inhibition, U2OS; assay type: cell-based; conditions: 48 hours, cell counting
Protocol: as §6, §5, §7

[11] = system: Human colorectal carcinoma cell line (HCT116); assay: Cytotoxicity test / growth inhibition, HCT116; assay type: cell-based; conditions: HCT-116, HCT116, 48 hours, cell counting
Protocol: as §2, §3, §4

[12] = system: Human adenocarcinomic alveolar basal epithelial cell line (A549); assay: Cytotoxicity test / growth inhibition, A549; assay type: cell-based; conditions: A549, 48 hours, cell counting
Protocol: as §6, §5, §7

- Sability % [1]: 99%
- PAMPA GI (RM %) membrane retention [4]: 19.1%
SMILES: CCCCc1cn(-c2ccc(NC(=O)Nc3ccccc3C)cc2)nn1 [Compound 20a, 1-(4-(4-butyl-1H-1,2,3-triazol-1-yl)phenyl)-3-o-tolylurea]
- IC50 [2]: 0.054 mM
- IC50 [3]: 0.037 mM
- IC50 [5]: 18.7 µM
- IC50 [6]: 149 µM

- LogS (Water Solubility Assay; from aqueous solubility): <−8.5
- Aq. Solub. (Water Solubility Assay; water, room temperature, 24-36 h): <0.001 µg/mL
- Sability % [1]: 95.6%
- PAMPA GI (RM %) membrane retention [4]: 24.8%
SMILES: CCCCn1nnc(-c2ccc(NC(=O)Nc3ccccc3C)cc2)n1 [Compound 49, 1-(4-(2-butyl-2H-tetrazol-5-yl)phenyl)-3-(o-tolyl)urea]

SMILES: CC(C)CCc1cn(-c2ccc(NC(=O)Nc3cccc4cnccc34)cc2)nn1 [Compound 55f, 1-(4-(4-isopentyl-1H-1,2,3-triazol-1-yl)phenyl)-3-(isoquinolin-5-yl)urea]
- IC50 [7]: 32.4 µM
- IC50 [8]: 0.6 µM
- IC50 [9]: 6.1 µM

SMILES: CCCCc1nc(-c2ccc(NC(=O)Nc3ccccc3C(F)(F)F)cc2)no1 [Compound 106, 1-(4-(5-butyl-1,2,4-oxadiazol-3-yl)phenyl)-3-(2-(trifluoromethyl)phenyl)urea]
- IC50 [10]: 35.4 µM
- IC50 [9]: 18.2 µM
- IC50 [11]: 36.8 µM
- IC50 [12]: 32.6 µM
